Laboratory results published in PubChem BioAssay (NCI).
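Five compound concentrations were applied to cells in 96-well plates for 48 hours; endpoints were derived by simple linear interpolation of the resulting dose-response curve. At the TGI there is no net growth.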

How the values were obtained:
Experiment in all cases: growth of human tumour cells (NCI), 48 h
HCC-2998 colon = test system: HCC-2998 colon
CAKI-1 renal = test system: CAKI-1 renal
SN12C renal = test system: SN12C renal
HOP-62 NSCLC = test system: HOP-62 NSCLC
SW-620 colon = test system: SW-620 colon
MALME-3M melanoma = test system: MALME-3M melanoma
OVCAR-5 ovarian = test system: OVCAR-5 ovarian
SF-539 CNS = test system: SF-539 CNS
TK-10 renal = test system: TK-10 renal
OVCAR-8 ovarian = test system: OVCAR-8 ovarian
SK-OV-3 ovarian = test system: SK-OV-3 ovarian
HL-60(TB) leukemia = test system: HL-60(TB) leukemia
IGROV1 ovarian = test system: IGROV1 ovarian
SK-MEL-2 melanoma = test system: SK-MEL-2 melanoma

Compound	TGI (HCC-2998 colon) [µM]	TGI (CAKI-1 renal) [µM]	TGI (SN12C renal) [µM]	TGI (HOP-62 NSCLC) [µM]	TGI (SW-620 colon) [µM]	TGI (MALME-3M melanoma) [µM]	TGI (OVCAR-5 ovarian) [µM]	TGI (SF-539 CNS) [µM]	TGI (TK-10 renal) [µM]	TGI (OVCAR-8 ovarian) [µM]	TGI (SK-OV-3 ovarian) [µM]	TGI (HL-60(TB) leukemia) [µM]	TGI (IGROV1 ovarian) [µM]	TGI (SK-MEL-2 melanoma) [µM]
CC(=O)SCCC(NC(=S)Nc1ccccc1)P(=O)(Oc1ccccc1)Oc1ccccc1 (centres undefined)	> 100	> 100	> 100	> 100	> 100	> 100	> 100	> 100	> 100	> 100	> 100	> 100	> 100	–
O=C1NC(=S)N/C1=C\c1cccs1	> 100	> 100	> 100	> 100	> 100	> 100	> 100	> 100	> 100	> 100	> 100	–	> 100	> 100
OCC12C=CC(C1)c1ccccc12 (centres undefined)	> 100	> 100	> 100	> 100	> 100	> 100	> 100	–	> 100	> 100	> 100	> 100	> 100	–
CC(C)NC(=O)OCc1c2c(n(C)c1COC(=O)NC(C)C)-c1cc(Cl)c(Cl)cc1CC2	32.7	–	> 100	> 100	> 100	> 100	> 100	> 100	84.5	> 100	> 100	–	96	72.8
Cc1c(N2C(=O)C(Cl)C2/C=C/c2ccccc2)c(=O)n(-c2ccccc2)n1C (centres undefined)	–	> 100	47	60.9	82.1	25	> 100	62.3	37.4	56.4	76.6	45.3	42.8	40.6
O=C1/C(=C/C=C/c2ccccc2)CCC1CNc1ccccc1 (centres undefined)	> 100	> 100	63.9	> 100	> 90.4	> 100	> 100	> 77.5	> 74.7	> 100	> 100	16.7	> 71.8	–
COc1cc2c(cc1O)c(O)cc1c3cc(OC)c(OC)cc3c[n+](C)c21	> 100	> 100	–	> 100	> 100	> 100	> 100	> 100	> 100	> 79	> 100	–	–	> 100
O=C(CSc1nnc(-c2ccccn2)s1)N/N=C/c1ccccc1	–	> 100	> 100	> 100	> 100	> 100	> 100	> 100	> 100	> 100	> 100	–	> 100	> 100
C#CCn1c(=O)c(I)cn(/C(=C/C(=O)OCC)C(=O)OCC)c1=O	–	3.38	32.3	32.9	4	4.27	31.1	12.3	1.67	19.1	31.8	3.89	38.3	33
NC(=Nc1ccccc1Cl)c1ccccc1N	> 100	> 100	–	> 100	> 100	> 100	> 100	–	> 100	> 100	> 100	> 100	> 100	> 100
O=C1C2=Cc3ccccc3OC2(O)Oc2cc3ccccc3cc21 (centres undefined)	74.9	> 100	> 100	> 100	> 100	> 100	> 100	79.2	> 100	> 100	> 100	–	> 100	> 100
COc1ccc(CC2COc3cc(OC)cc(OC)c3C2=O)cc1 (centres undefined)	–	57.1	> 100	97.1	> 100	75.3	76.4	37.3	82.3	83.3	56.6	> 100	> 100	> 100
CC(C)CCNC(=O)c1ccc(CNC(=O)/C=C/c2cccc(Oc3ccccc3)c2)cc1	> 100	> 100	> 100	53.3	> 100	> 100	> 100	> 100	96.9	> 100	98.3	–	> 100	72.5
CCN1C[C@]2(C)CC[C@H](O)C34C1C(C[C@@H]32)[C@@]1(O)CC[C@H]2C[C@@H]4[C@@H]1[C@H]2O	–	> 100	> 100	> 100	> 100	> 100	> 100	> 100	> 100	> 100	> 100	> 100	> 100	> 100
O=C(NC1=C(Cl)C(=O)c2ccccc2C1=O)c1ccccc1	> 100	–	> 100	> 100	33.4	31.3	> 100	> 100	52.5	> 100	–	> 100	> 100	–
CNc1ncccc1Nc1cc(=O)n2c3cccnc3n(C)c2c1	> 100	> 100	–	> 100	> 100	–	> 100	> 100	> 100	> 100	> 100	–	> 100	–
CC12C=CC(C)(C3C(=O)C4C(C(=O)C31)C1(C)C=CC4(C)S1=O)S2=O (centres undefined)	> 100	> 100	–	> 100	–	> 100	> 100	> 100	> 100	> 100	> 100	–	> 100	–
CCC1=CCN(c2cc(C)ccn2)OC1c1ccc(OC)cc1 (centres undefined)	86.8	> 100	64.6	> 100	> 100	84.1	> 100	–	–	> 100	> 100	50.6	> 100	41.4
COc1ccc2nc3cc(Cl)ccc3c(Sc3ccc([N+](=O)[O-])cc3C)c2c1	> 100	> 100	> 100	> 100	> 100	> 100	> 100	> 100	> 100	> 100	> 100	–	> 100	> 100

Compound	TGI (HCC-2998 colon) [µM]	TGI (CAKI-1 renal) [µM]	TGI (SN12C renal) [µM]	TGI (HOP-62 NSCLC) [µM]	TGI (SW-620 colon) [µM]	TGI (MALME-3M melanoma) [µM]	TGI (OVCAR-5 ovarian) [µM]	TGI (SF-539 CNS) [µM]	TGI (TK-10 renal) [µM]	TGI (OVCAR-8 ovarian) [µM]	TGI (SK-OV-3 ovarian) [µM]	TGI (HL-60(TB) leukemia) [µM]	TGI (IGROV1 ovarian) [µM]	TGI (SK-MEL-2 melanoma) [µM]
CNC1(c2cc3ccccc3s2)CCCCC1	28.7	> 100	> 100	> 100	> 100	–	95.7	46.3	> 100	> 100	> 100	–	84.6	–
Cc1cccc(Cl)c1NCC(O)CN1CCN(C)CC1 (centres undefined)	> 100	> 100	> 100	> 100	> 100	> 100	> 100	–	> 100	> 100	–	–	> 100	> 100
Cc1cc(C)c2c(=O)cc(-c3cccc4ccccc34)[nH]c2n1	7.37	> 100	> 100	> 100	> 88.8	3.29	> 100	> 19.9	> 87.1	7.38	> 42	0.734	> 84.5	–
CC(C)(C)C1CCC(=O)/C(=C/CC2CC(=O)N(c3ccccc3)C(=O)C2)C1 (centres undefined)	43.5	41.6	41.3	72.8	53.5	36.7	41.6	–	31.8	39.8	–	94.1	44.5	42.9
C=CCCON(C(=O)OC(C)(C)C)c1ccccc1	–	> 100	> 100	> 100	> 100	> 100	> 100	> 100	> 100	> 100	> 100	> 100	> 100	> 100
CCCCCCNCCc1cnc[nH]1	> 100	> 100	> 100	> 100	> 100	> 100	> 100	> 100	–	> 100	> 100	–	> 100	> 100
CC1(C)C2CCC1(C)C(N/C(Sc1ccccc1)=C(/C(Cl)=C(Cl)Cl)[N+](=O)[O-])C2 (centres undefined)	28.5	28.5	31	62.9	24	28.4	65.5	26.2	–	27.3	34.7	–	–	25
COc1ccc(-c2c(C(C)=O)c(-c3ccccc3)n(C3OC(CO)C(O)C(O)C3O)c(=S)c2C#N)cc1 (centres undefined)	> 100	> 100	> 100	> 100	> 100	> 100	> 100	> 100	> 100	> 100	> 100	> 100	> 100	–
CC1(C)[C@@H]2CC[C@]1(C)[C@H](OC(=O)CSC#N)C2	> 100	> 100	> 100	> 100	35.4	> 100	> 100	67.9	> 100	> 100	> 100	–	> 100	> 100
Cc1ccc(-n2[nH]nc(C(N)=O)c2=O)cc1	> 100	> 100	> 100	> 100	> 100	> 100	> 100	–	> 100	> 100	> 100	> 100	> 100	–
CCCCC1(NN=C2CCCCC2)C(=O)N(c2ccccc2)N(c2ccccc2)C1=O	> 100	> 100	> 100	> 100	> 100	–	–	> 100	> 100	> 100	> 100	38.4	> 100	–
ONC1=Nc2cc(Cl)ccc2C(=S)N2CSCC12 (centres undefined)	> 100	> 100	> 100	> 100	> 100	> 100	> 100	–	> 100	> 100	> 100	–	> 100	> 100
CCCCCCCC(CC(=O)NC(CO)C(=O)NC(CO)CC(C)C)OC(=O)CC(CCCCCCC)OC(=O)CC(CCCCCCC)OC1OC(C)C(O)C(OC2OC(C)C(OC(C)=O)C(O)C2O)C1O (centres undefined)	17.2	29	18.6	31.2	23.3	23.9	21.7	23.4	29.8	23.3	29.8	9.2	22.5	–
C=C(C)C1CCC(C(=O)O)CC1 (centres undefined)	> 100	> 100	> 100	> 100	> 100	> 100	> 100	> 100	> 100	> 100	> 100	–	> 100	> 100
CN(/N=C/c1ccc(C(=O)O)cc1)C1=NCCCCN1	> 100	> 100	> 100	> 100	–	> 100	> 100	> 100	–	> 100	> 100	> 100	> 100	–
C=C(CCOC)CCC1CCCCC(CN(C)C)C1=O (centres undefined)	> 100	> 100	> 100	> 100	> 100	> 100	> 100	–	–	> 100	> 100	> 100	> 100	> 100
O=c1[nH]c2cc(C(F)(F)F)ccc2nc1C(F)(F)F	> 100	89.9	> 100	76.7	> 100	> 100	> 100	94.6	> 100	> 100	> 100	–	> 100	79.3
Nc1cc([N+](=O)[O-])ccc1C(=O)N1CCC[C@H]1CO	–	> 100	> 100	–	> 100	> 100	–	> 100	> 100	> 100	> 100	> 100	> 100	> 100
